Reference: patent US20230286925A1, “PHENYL TRIAZOLE MLL1-WDR5 PROTEIN-PROTEIN INTERACTION INHIBITOR” (HUYABIO International, LLC, priority 2022, published 2023)
Where two headings read alike, the source gives them in different places.

Tests used:
MV-411 cells = experiment: Anti-proliferative activity against leukemia cells (CellTiterGlo viability, 72 hrs); assay type: cell-based
Procedure: Procedure: MV-411 or Molm-13 cells were seeded into 384 well plates at 2000 cells/well density in 50 uL according plate map and were allowed to naturally sediment by waiting about 30 min in Clean Bench. Next, plated cells were centrifuged for 1 min at 1000 rpm and the excess cells were transferred into the flasks for further culture. Cells in the assay plates were incubated (at least 4 hrs) at 37° C., 5% CO2 for next process followed by adding the compounds as the plate map indicated. The tests were performed in duplicates with treatment of compounds at 10 pts 3 fold titration in 384 well plates. Taxol was as positive control while DMSO as negative control. To rule out edge effect, the wells on the edge were not seeded and therefore one 384 well plate holds 13 compounds. Cells viability was measured 72 hrs after incubation with compounds and using CellTiterGlo (promega) viability assay according to manufactory's instruction to check the ATP production in each well.
Experiments on anti-proliferative activity against leukemia cells were conducted with some of the compounds of the invention.

[1] = biological target: MLL1-WDR5 protein-protein interaction (Homo sapiens (Human), UniProt P61964); experiment: WDR5 TR-FRET assay of inhibition against MLL1-WDR5 protein-protein interaction; assay type: binding
Procedure: WDR5 TR-FRET Assay Procedure: Stock compounds were transferred to the assay plate by Echo Liquid Handler. Reactions were performed in the assay buffer (1×PBS, 300 mM NaCl, 0.5 mM TCEP, 0.1% CHAPS) containing 5 nM WDR5 protein, 10 nM peptide (Ac-ARTEVHLRKS-[Ahx-Ahx] [C]-Alexa Fluor 488-NH2) and 0.25 nM Tb-anti His antibody (Tb-Ab) in 384-well white plate (PerkinElmer) with a final volume of 20 μl. Compounds were incubated with WDR5 protein for 30 min at room temperature. Plates were covered, protected from light and incubated for 60 min at room temperature after adding the peptide and Tb-Ab. EnVision Multimode Plate Reader (PerkinElmer) was used for the TR-FRET assay with excitation wavelength at 340 nm and emission wavelength at 495 and 520 nm. The ratio of the 520/495 wavelengths were used to assess the degree of the FRET signal. IC50 was calculated by fitting the inhibition data using XLfit software to sigmoidal dose-response model.
Biphenyl compound DDO-2084 was reported to be a small molecule inhibitor that can inhibit MLL1-WDR5 protein-protein interaction, reduce MLL1 enzyme catalytic activity, and downregulate the expression of Hox and Meis-1 genes (Eur. J. Med. Chem. 2016, 124, 480-489). DDO-2084 is used as a positive control compound.

[2] = MV4-11, MV-411 human acute monocytic leukemia cell, Table 7
[3] = Table 7, read-out: WDR5 TR-FRET Assay (IC50 nM)
[4] = MV4-11, MV-411 human acute monocytic leukemia cell, Table 6
[5] = WDR5 TR-FRET, 5 nM WDR5 protein, 10 nM peptide, read-out: MLL1-WDR5 PPI inhibitory activity

Row | SMILES | GI50 (MV-411 cells; [2]) [µM] | IC50 [1, 3] [nM] | GI50 (MV-411 cells; [4]) [µM] | IC50 [1, 5] [nM] | GI50 (MV-411 cells; MV-411 human acute monocytic leukemia cell, Table 6) [µM]
1 | C[C@H]1CN(c2cc(F)c(-c3cnc(N4CCOCC4)nc3)cc2Nc2ncnc(Cl)c2N)CCN1C [DDO-2213_020, (S)-6-chloro-N4-(2-(3,4-dimethylpiperazin-1-yl)-4-fluoro-5-(2-morpholinopyrimidin-5-yl)phenyl)pyrimidine-4,5-diamine] | 5.21 | 7.44 | – | – | –
2 | Cc1c(F)c(N)cc(C(=O)Nc2cc(-n3cc(C(=O)OCC(C)C)nn3)ccc2N2CCN(C)CC2)c1Cl [HYBI_003, isobutyl 1-(3-(5-amino-2-chloro-4-fluoro-3-methylbenzamido)-4-(4-methylpiperazin-1-yl)phenyl)-1H-1,2,3-triazole-4-carboxylate] | – | – | 3.41 | 15.6 | –
3 | CCCC(=O)Nc1ccc(-c2cc(Nc3ncnc(Cl)c3N)c(N3C[C@@H](C)N(C)[C@@H](C)C3)cc2F)cc1 [DDO-2213_007, N-(5′-((5-amino-6-chloropyrimidin-4-yl)amino)-2′-fluoro-4′-((3S,5R)-3,4,5-trimethylpiperazin-1-yl)-[1,1′-biphenyl]-4-yl)butyramide] | 11.5 | 51.3 | – | – | –
4 | Cc1c(F)c(N)cc(C(=O)Nc2cc(-n3cc(C(=O)N(C)CCCN4CCOCC4)nn3)ccc2N2CCN(C)CC2)c1Cl [HYBI_019] | – | – | 27.1 | 20.4 | –
5 | Cc1c(F)c(N)cc(C(=O)Nc2cc(-n3cc(C(=O)OC4(C)CCC4)nn3)ccc2N2CCN(C)CC2)c1Cl [HYBI_018] | – | – | 5.99 | 16.8 | –
6 | C[C@@H]1CN(c2cc(F)c(-c3ccnc(N4CCOCC4)n3)cc2Nc2ncnc(Cl)c2N)C[C@H](C)N1C [DDO-2213_024, 6-chloro-N4-(4-fluoro-5-(2-morpholinopyrimidin-4-yl)-2-((3S,5R)-3,4,5-trimethylpiperazin-1-yl)phenyl)pyrimidine-4,5-diamine] | 18.5 | 15 | – | – | –
7 | C[C@@H]1CN(c2cc(F)c(-c3ccc(C(=O)N(C)C)cc3)cc2Nc2ncnc(Cl)c2N)C[C@H](C)N1C [DDO-2213_002, 4-[5-[(5-amino-6-chloro-pyrimidin-4-yl)amino]-2-fluoro-4-[(3R,5S)-3,4,5-trimethylpiperazin-1-yl]phenyl]-N,N-dimethyl-benzamide] | 15.6 | 55.5 | – | – | –
8 | C[C@H]1CN(c2cc(F)c(-c3ccc(NC(=O)C4CCCCC4)cc3)cc2Nc2ncnc(Cl)c2N)CCN1C [DDO-2213_005, (S)—N-(5′-((5-amino-6-chloropyrimidin-4-yl)amino)-4′-(3,4-dimethylpiperazin-1-yl)-2′-fluoro-[1,1′-biphenyl]-4-yl)cyclohexanecarboxamide] | 3.37 | 11.1 | – | – | –
9 | C[C@@H]1CN(c2cc(F)c(-c3ccc(NC(=O)C4CCCCC4)cc3)cc2Nc2ncnc(Cl)c2N)C[C@H](C)N1C [DDO-2213_006, N-(5′-((5-amino-6-chloropyrimidin-4-yl)amino)-2′-fluoro-4′-((3S,5R)-3,4,5-trimethylpiperazin-1-yl)-[1,1′-biphenyl]-4-yl)cyclohexanecarboxamide] | 6.09 | 38.6 | – | – | –
10 | CN1CCN(c2ccc(-n3cc(C(=O)NCCCN4CCOCC4)nn3)cc2NC(=O)c2ccc(F)c([N+](=O)[O-])c2)CC1 [HYBI_040] | – | – | 0.21 | 828 | –
11 | Cc1c(F)c(N)cc(C(=O)Nc2cc(-n3cc(C(=O)NC4CCCCC4)nn3)c(F)cc2N2C[C@@H](C)N(C)[C@@H](C)C2)c1Cl [HYBI_085] | – | – | 2.51 | 3.86 | –
12 | Cc1c(F)c(N)cc(C(=O)Nc2cc(-n3cc(C(=O)NCCCN4CCOCC4)nn3)c(F)cc2N2CCN(C)CC2)c1Cl [HYBI_023] | – | – | 32 | 19.8 | –
13 | Cc1c(F)c(N)cc(C(=O)Nc2cc(-n3cc(C(=O)NCCCN4CCN(C)CC4)nn3)c(F)cc2N2C[C@@H](C)N(C)[C@@H](C)C2)c1Cl [HYBI_101] | – | – | 10.5 | 3.65 | –
14 | Cc1cc(C)cc(C(=O)Nc2cc(-n3cc(C(=O)NCCCN4CCOCC4)nn3)ccc2N2CCN(C)CC2)c1 [HYBI_044] | – | – | 64.8 | 903 | –
15 | Cc1c(F)c(N)cc(C(=O)Nc2cc(-n3cc(C(=O)NCC4CCCCC4)nn3)c(F)cc2N2C[C@@H](C)N(C)[C@@H](C)C2)c1Cl [HYBI_110] | – | – | 25 | 3 | –
16 | C[C@@H]1CN(c2ncc(-c3cc(Nc4ncnc(Cl)c4N)c(N4CCN(C)[C@@H](C)C4)cc3F)cn2)C[C@H](C)O1 [DDO-2213_023, 6-chloro-N4-(5-(2-((2S,6R)-2,6-dimethylmorpholino)pyrimidin-5-yl)-2-((S)-3,4-dimethylpiperazin-1-yl)-4-fluorophenyl)pyrimidine-4,5-diamine] | 2.79 | 3.56 | – | – | –
17 | C[C@@H]1CN(c2cc(F)c(-c3ccnc(OCC4CC4)c3)cc2Nc2ncnc(Cl)c2N)C[C@H](C)N1C [DDO-2213_009, 6-chloro-N4-(5-(2-(cyclopropylmethoxy)pyridin-4-yl)-4-fluoro-2-((3S,5R)-3,4,5-trimethylpiperazin-1-yl)phenyl)pyrimidine-4,5-diamine] | 1.69 | 33.9 | – | – | –
18 | C[C@@H]1CN(c2cc(F)c(-c3ccc(CN4CCOCC4)cc3)cc2Nc2ncnc(Cl)c2N)C[C@H](C)N1C [DDO-2213_018, 6-chloro-N4-(6-fluoro-4′-(morpholinomethyl)-4-((3S,5R)-3,4,5-trimethylpiperazin-1-yl)-[1,1′-biphenyl]-3-yl)pyrimidine-4,5-diamine] | 10.8 | 110 | – | – | –
19 | Cc1c(F)c(N)cc(C(=O)Nc2cc(-n3cc(C(=O)N4CCOCC4)nn3)c(F)cc2N2C[C@@H](C)N(C)[C@@H](C)C2)c1Cl [HYBI_083] | – | – | 40.2 | 3.08 | –
20 | C[C@H]1CN(c2cc(F)c(-c3ccnc(OCC4CC4)c3)cc2Nc2ncnc(Cl)c2N)CCN1C [DDO-2213_008, (S)-6-chloro-N4-(5-(2-(cyclopropylmethoxy)pyridin-4-yl)-2-(3,4-dimethylpiperazin-1-yl)-4-fluorophenyl)pyrimidine-4,5-diamine] | 4.76 | 8.63 | – | – | –
21 | CN1CCN(c2ccc(-n3cc(C(=O)NCCCN4CCOCC4)nn3)cc2NC(=O)c2cc(Cl)cc(Cl)c2)CC1 [HYBI_045] | – | – | 4.15 | 384 | –
22 | C[C@@H]1CN(c2cc(F)c(-c3cnc(N4CCOCC4)nc3)cc2Nc2ncnc(Cl)c2N)C[C@H](C)N1C [DDO-2213_021, 6-chloro-N4-(4-fluoro-5-(2-morpholinopyrimidin-5-yl)-2-((3S,5R)-3,4,5-trimethylpiperazin-1-yl)phenyl)pyrimidine-4,5-diamine] | 9.01 | 23.4 | – | – | –
23 | Cc1c(F)c(N)cc(C(=O)Nc2cc(-n3cc(C(=O)N(C)CCCO)nn3)ccc2N2CCN(C)CC2)c1Cl [HYBI_019A] | – | – | 24.9 | 17.1 | –
24 | CCOC(=O)[C@H](C)OC(=O)c1cn(-c2ccc(N3CCN(C)CC3)c(NC(=O)c3cc(N)c(F)c(C)c3Cl)c2)nn1 [HYBI_013] | – | – | 2.46 | 19.4 | –
25 | CC(C)NC(=O)c1ccc(-c2cc(Nc3ncnc(Cl)c3N)c(N3C[C@@H](C)N(C)[C@@H](C)C3)cc2F)cc1 [DDO-2213_004, 5′-((5-amino-6-chloropyrimidin-4-yl)amino)-2′-fluoro-N-isopropyl-4′-((3S,5R)-3,4,5-trimethylpiperazin-1-yl)-[1,1′-biphenyl]-4-carboxamide] | 14.8 | 68.8 | – | – | –
26 | Cc1cc(C(=O)Nc2cc(-n3cc(C(=O)NCCCN4CCOCC4)nn3)ccc2N2CCN(C)CC2)cc(C)c1F [HYBI_037] | – | – | 8.38 | 109 | –
27 | Cc1c(F)c(N)cc(C(=O)Nc2cc(-n3cc(C(=O)NC4CCN(C)CC4)nn3)c(F)cc2N2C[C@@H](C)N(C)[C@@H](C)C2)c1Cl [HYBI_087] | – | – | > 200 | 2.6 | –
28 | C[C@@H]1CN(c2cc(F)c(-c3ccc(OCC4CC4)nc3)cc2Nc2ncnc(Cl)c2N)C[C@H](C)N1C [DDO-2213_022, 6-chloro-N4-(5-(6-(cyclopropylmethoxy)pyridin-3-yl)-4-fluoro-2-((3S,5R)-3,4,5-trimethylpiperazin-1-yl)phenyl)pyrimidine-4,5-diamine] | 3.68 | 41.2 | – | – | –
29 | C[C@@H]1CN(c2cc(F)c(-c3ccnc(N4CCO[C@@H](C)C4)n3)cc2Nc2ncnc(Cl)c2N)C[C@H](C)N1C [DDO-2213_029, 6-chloro-N4-(4-fluoro-5-(2-((S)-2-methylmorpholino)pyrimidin-4-yl)-2-((3S,5R)-3,4,5-trimethylpiperazin-1-yl)phenyl)pyrimidine-4,5-diamine] | 17.2 | 12.9 | – | – | –
30 | Cc1c(F)ccc(C(=O)Nc2cc(-n3cc(C(=O)NCCCN4CCOCC4)nn3)c(F)cc2N2CCN(C)CC2)c1Cl [HYBI_053] | – | – | – | 19.4 | 5.69
